These results are taken from patent publication US7101878B1 (Agouron Pharmaceuticals, Inc., priority 1998, dated 2006).

The target in this assay is T1, mouse GnRH receptor (Mus musculus, UniProt Q01776).
T1 construct: expressed in transfected cells; host or cells: 293 cells
T1 sequence (Q01776 1-327): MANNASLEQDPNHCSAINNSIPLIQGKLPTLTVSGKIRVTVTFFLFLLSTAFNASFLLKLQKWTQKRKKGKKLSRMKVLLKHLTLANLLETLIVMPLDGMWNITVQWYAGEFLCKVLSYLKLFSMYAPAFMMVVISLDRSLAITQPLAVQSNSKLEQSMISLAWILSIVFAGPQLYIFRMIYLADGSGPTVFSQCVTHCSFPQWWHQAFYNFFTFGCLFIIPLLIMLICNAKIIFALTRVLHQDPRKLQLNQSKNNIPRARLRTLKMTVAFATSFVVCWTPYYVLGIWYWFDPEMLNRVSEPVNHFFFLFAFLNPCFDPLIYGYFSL
Briefly: Radioligand binding, 125I-GnRH-A, 293 cells expressing mouse GnRH receptors. Particulars: 1 h, substrate remaining; 10 uM compound; closer to zero = closer to 100% inhibition; read-out: S%R 10 uM mGnRHR. Put shortly:
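Bound label captured on 0.1% polyethyleneimine-treated GF/C filters, washed three times with PBS, counted. IC50 derived; identical set-up for every species.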
With `CCN(CCO)C(=O)c1ccc(Cc2cc3c(cc2C)C(C)(C)CCC3(C)C)o1` [Compound 539], the remaining activity at 10 µM stood at 19%.

`Cc1cc2c(cc1Cc1ccc(C(=O)N(CCN3CCCC3)Cc3ccccc3)o1)C(C)(C)CCC2(C)C` [Compound 540]: the remaining activity at 10 µM was found to be 0%.

In the case of `Cc1cc2c(cc1Cc1ccc(C(=O)N(CCC#N)Cc3cccnc3)o1)C(C)(C)CCC2(C)C` [Compound 541], the remaining activity at 10 µM was 9%.

`Cc1cc2c(cc1Cc1ccc(C(=O)N3CCC(C(=O)c4ccccc4)CC3)o1)C(C)(C)CCC2(C)C` [Compound 542]: the remaining activity at 10 µM came to 42%.

For the compound `Cc1cc2c(cc1Cc1ccc(C(=O)N3CC=CCC3)o1)C(C)(C)CCC2(C)C` [Compound 543], the remaining activity at 10 µM came out at 31%.

Consider `CC(=O)N(C)C1CCN(C(=O)c2ccc(Cc3cc4c(cc3C)C(C)(C)CCC4(C)C)o2)C1` (centres unmarked) [Compound 544], for which the remaining activity at 10 µM came out at 27%.

Consider `Cc1cc2c(cc1Cc1ccc(C(=O)NCCc3ccccc3)o1)C(C)(C)CCC2(C)C` [Compound 545], for which the remaining activity at 10 µM was 28%.

Take `Cc1cc2c(cc1Cc1ccc(C(=O)NC(C)C3CCCCC3)o1)C(C)(C)CCC2(C)C` (centres unmarked) [Compound 546]: the remaining activity at 10 µM turned out to be 29%.

For the compound `Cc1cc2c(cc1Cc1ccc(C(=O)N(Cc3ccc(C(C)C)cc3)Cc3cccnc3)o1)C(C)(C)CCC2(C)C` [Compound 547], the remaining activity at 10 µM turned out to be 24%.

On to `Cc1cc2c(cc1Cc1ccc(C(=O)N(C)C3CCN(C)CC3)o1)C(C)(C)CCC2(C)C` [Compound 548], for which the remaining activity at 10 µM was determined as 12%.

As for `Cc1cc2c(cc1Cc1ccc(C(=O)N3CCC[C@H]3CNc3ccccc3)o1)C(C)(C)CCC2(C)C` [Compound 549], the remaining activity at 10 µM was found to be 48%.

Regarding `Cc1cc2c(cc1Cc1ccc(C(=O)NC3(CO)CCCC3)o1)C(C)(C)CCC2(C)C` [Compound 550], the remaining activity at 10 µM is 3%.

Turning to `Cc1cc2c(cc1Cc1ccc(C(=O)N(Cc3cccnc3)Cc3cccc(C(F)(F)F)c3)o1)C(C)(C)CCC2(C)C` [Compound 551], the remaining activity at 10 µM is 21%.

Consider `Cc1cc2c(cc1Cc1ccc(C(=O)NCCn3c([N+](=O)[O-])cnc3C)o1)C(C)(C)CCC2(C)C` [Compound 552], for which the remaining activity at 10 µM was 58%.

As to `COc1cccc(N2CCN(C(=O)c3ccc(Cc4cc5c(cc4C)C(C)(C)CCC5(C)C)o3)CC2)c1` [Compound 553], the remaining activity at 10 µM stood at 34%.

On to `COc1ccccc1N1CCN(C(=O)c2ccc(Cc3cc4c(cc3C)C(C)(C)CCC4(C)C)o2)CC1` [Compound 554], for which the remaining activity at 10 µM is 27%.

As for `Cc1cc2c(cc1Cc1ccc(C(=O)N3CCN(CC(=O)N4CCCC4)CC3)o1)C(C)(C)CCC2(C)C` [Compound 555], the remaining activity at 10 µM was 21%.

Regarding `Cc1cc2c(cc1Cc1ccc(C(=O)NCC(C)O)o1)C(C)(C)CCC2(C)C` (centres unmarked) [Compound 556], the remaining activity at 10 µM worked out at 10%.

In the case of `COCC(C)NC(=O)c1ccc(Cc2cc3c(cc2C)C(C)(C)CCC3(C)C)o1` (centres unmarked) [Compound 557], the remaining activity at 10 µM was 10%.

Consider `Cc1cc2c(cc1Cc1ccc(C(=O)NC(CO)CC3CCCCC3)o1)C(C)(C)CCC2(C)C` (centres unmarked) [Compound 558], for which the remaining activity at 10 µM was determined as 24%.

On to `Cc1cc2c(cc1Cc1ccc(C(=O)N(CC#N)Cc3ccccc3)o1)C(C)(C)CCC2(C)C` [Compound 559], for which the remaining activity at 10 µM is 26%.

Take `Cc1cc2c(cc1Cc1ccc(C(=O)NCCCOC(C)C)o1)C(C)(C)CCC2(C)C` [Compound 560]: the remaining activity at 10 µM came out at 7%.

As to `Cc1cc2c(cc1Cc1ccc(C(=O)NCCSCCO)o1)C(C)(C)CCC2(C)C` [Compound 561], the remaining activity at 10 µM stood at 0%.

For the compound `Cc1cc2c(cc1Cc1ccc(C(=O)N3CCc4ccccc4C3)o1)C(C)(C)CCC2(C)C` [Compound 562], the remaining activity at 10 µM came out at 30%.

For `Cc1cc2c(cc1Cc1ccc(C(=O)N3CCCCCCC3)o1)C(C)(C)CCC2(C)C` [Compound 563], the remaining activity at 10 µM came out at 13%.

In the case of `Cc1cc2c(cc1Cc1ccc(C(=O)NC(C)(CO)CO)o1)C(C)(C)CCC2(C)C` [Compound 564], the remaining activity at 10 µM turned out to be 45%.

For the compound `Cc1ccc(N2CCN(C(=O)c3ccc(Cc4cc5c(cc4C)C(C)(C)CCC5(C)C)o3)CC2)c(C)c1` [Compound 565], the remaining activity at 10 µM amounted to 48%.

Consider `Cc1cc2c(cc1Cc1ccc(C(=O)NC[C@@H]3CCCC[C@H]3O)o1)C(C)(C)CCC2(C)C` [Compound 566], for which the remaining activity at 10 µM is 3%.

Regarding `Cc1cc2c(cc1Cc1ccc(C(=O)N(CCCN3CCN(C)CC3)Cc3cc(C)n(-c4cccc(C(F)(F)F)c4)c3C)o1)C(C)(C)CCC2(C)C` [Compound 567], the remaining activity at 10 µM was -1%.

With `CCC(C)CNC(=O)c1ccc(Cc2cc3c(cc2C)C(C)(C)CCC3(C)C)o1` (centres unmarked) [Compound 568], the remaining activity at 10 µM was 28%.

As for `Cc1cc2c(cc1Cc1ccc(C(=O)N3CCC(O)(c4ccc(Cl)cc4)CC3)o1)C(C)(C)CCC2(C)C` [Compound 569], the remaining activity at 10 µM was determined as 58%.

With `Cc1cc2c(cc1Cc1ccc(C(=O)NC3c4ccccc4-c4ccccc43)o1)C(C)(C)CCC2(C)C` [Compound 570], the remaining activity at 10 µM stood at 48%.

In the case of `Cc1cc2c(cc1Cc1ccc(C(=O)NCC3(O)CCCCC3)o1)C(C)(C)CCC2(C)C` [Compound 571], the remaining activity at 10 µM amounted to 36%.

For the compound `Cc1cc2c(cc1Cc1ccc(C(=O)NC3CCC3)o1)C(C)(C)CCC2(C)C` [Compound 572], the remaining activity at 10 µM came to 41%.

In the case of `Cc1cc2c(cc1Cc1ccc(C(=O)N3CCC(C(=O)c4ccc(F)cc4)CC3)o1)C(C)(C)CCC2(C)C` [Compound 573], the remaining activity at 10 µM stood at 37%.

As to `Cc1cc2c(cc1Cc1ccc(C(=O)NC(CO)C(C)C)o1)C(C)(C)CCC2(C)C` (centres unmarked) [Compound 574], the remaining activity at 10 µM came out at 13%.

In the case of `Cc1cc2c(cc1Cc1ccc(C(=O)N(CCN(C)C)Cc3cccc4ccccc34)o1)C(C)(C)CCC2(C)C` [Compound 575], the remaining activity at 10 µM was -3%.

As to `Cc1cc2c(cc1Cc1ccc(C(=O)N(C)CC3OCCO3)o1)C(C)(C)CCC2(C)C` [Compound 576], the remaining activity at 10 µM was 15%.

Turning to `CC(=O)N1CCN(C(=O)c2ccc(Cc3cc4c(cc3C)C(C)(C)CCC4(C)C)o2)CC1` [Compound 577], the remaining activity at 10 µM was determined as 30%.

Take `COc1ccc(C(NC(=O)c2ccc(Cc3cc4c(cc3C)C(C)(C)CCC4(C)C)o2)C2CC2)cc1` (centres unmarked) [Compound 578]: the remaining activity at 10 µM was found to be 17%.

Regarding `Cc1cc2c(cc1Cc1ccc(C(=O)N3CC(C)CC(C)C3)o1)C(C)(C)CCC2(C)C` (centres unmarked) [Compound 579], the remaining activity at 10 µM was 10%.

As for `Cc1cc2c(cc1Cc1ccc(C(=O)N(C)CC#N)o1)C(C)(C)CCC2(C)C` [Compound 580], the remaining activity at 10 µM came out at 18%.

With `Cc1cc2c(cc1Cc1ccc(C(=O)N3CCN(c4cccc(C)c4C)CC3)o1)C(C)(C)CCC2(C)C` [Compound 581], the remaining activity at 10 µM amounted to 43%.

Take `Cc1cc2c(cc1Cc1ccc(C(=O)NC[C@@H]3CCCO3)o1)C(C)(C)CCC2(C)C` [Compound 582]: the remaining activity at 10 µM is -2%.

Consider `Cc1cc2c(cc1Cc1ccc(C(=O)N(CCCN3CCN(C)CC3)Cc3ccc(F)cc3)o1)C(C)(C)CCC2(C)C` [Compound 583], for which the remaining activity at 10 µM is -3%.

`Cc1cc2c(cc1Cc1ccc(C(=O)N(CC(C)C)CC(C)C)o1)C(C)(C)CCC2(C)C` [Compound 584]: the remaining activity at 10 µM was 15%.

For the compound `Cc1cc2c(cc1Cc1ccc(C(=O)N3CCC(Cc4ccccc4)CC3)o1)C(C)(C)CCC2(C)C` [Compound 585], the remaining activity at 10 µM turned out to be 52%.

In the case of `Cc1cc2c(cc1Cc1ccc(C(=O)N3CCCCC3C(=O)NC(c3ccccc3)c3ccccc3)o1)C(C)(C)CCC2(C)C` (centres unmarked) [Compound 586], the remaining activity at 10 µM was found to be 57%.

As to `Cc1cc2c(cc1Cc1ccc(C(=O)NC(C)CCCC(C)C)o1)C(C)(C)CCC2(C)C` (centres unmarked) [Compound 587], the remaining activity at 10 µM stood at 29%.

As to `Cc1cc2c(cc1Cc1ccc(C(=O)N3CCC(N4CCCC4)CC3)o1)C(C)(C)CCC2(C)C` [Compound 588], the remaining activity at 10 µM is 4%.

`CCCN(Cc1ccc([N+](=O)[O-])cc1)C(=O)c1ccc(Cc2cc3c(cc2C)C(C)(C)CCC3(C)C)o1` [Compound 589]: the remaining activity at 10 µM was determined as 35%.

`Cc1cc2c(cc1Cc1ccc(C(=O)N(CCN(C)C)Cc3ccccc3[N+](=O)[O-])o1)C(C)(C)CCC2(C)C` [Compound 590]: the remaining activity at 10 µM was -2%.

With `Cc1cc2c(cc1Cc1ccc(C(=O)N3C[C@H]4CCCC[C@H]4CC3C(=O)NC(C)(C)C)o1)C(C)(C)CCC2(C)C` (some centres unmarked) [Compound 591], the remaining activity at 10 µM came out at 48%.

`Cc1cc2c(cc1Cc1ccc(C(=O)N3CC(C)OC(C)C3)o1)C(C)(C)CCC2(C)C` (centres unmarked) [Compound 592]: the remaining activity at 10 µM is 17%.

Take `Cc1cc2c(cc1Cc1ccc(C(=O)NCCCCCO)o1)C(C)(C)CCC2(C)C` [Compound 593]: the remaining activity at 10 µM is 2%.

Turning to `Cc1cc2c(cc1Cc1ccc(C(=O)NCCC3=CCCCC3)o1)C(C)(C)CCC2(C)C` [Compound 594], the remaining activity at 10 µM worked out at 16%.

As to `Cc1cc2c(cc1Cc1ccc(C(=O)N(CCc3ccccn3)Cc3ccccc3)o1)C(C)(C)CCC2(C)C` [Compound 595], the remaining activity at 10 µM was 24%.

For `Cc1cc2c(cc1Cc1ccc(C(=O)NCC(O)c3ccccc3)o1)C(C)(C)CCC2(C)C` (centres unmarked) [Compound 596], the remaining activity at 10 µM is -1%.

For the compound `CCC(CO)NC(=O)c1ccc(Cc2cc3c(cc2C)C(C)(C)CCC3(C)C)o1` (centres unmarked) [Compound 597], the remaining activity at 10 µM was 11%.
